The source of these data is patent US9314485B2, “Use of PI3K M-TOR and AKT inhibitors to induce FOXP3 expression and generate regulatory T cells” (Medical Research Council, priority 2006, dated 2016).

One assay concerns the target PI4KIIIβ (Homo sapiens, UniProt Q9UBF8). The following applies: unit inferred; read-out: Specificity for PI4KIIIβ (IC50 determined in vitro); cited from earlier work.
The next assay concerns the target p110δ (Homo sapiens, UniProt O00329). To be noted: unit inferred; read-out: Specificity for p110δ (IC50 determined in vitro); cited from earlier work.
Another assay addresses PI4KIIIα (Homo sapiens, UniProt P42356). To be noted: unit inferred; read-out: Specificity for PI4KIIIα (IC50 determined in vitro); cited from earlier work.
The test system of assay [1] is PI4P5KIα. To be noted: second PI4P5KIα line; unit inferred; read-out: Specificity for PI4P5KIα (IC50 determined in vitro); cited from earlier work.
The target of a further assay is PI3KC2β (Homo sapiens, UniProt O00750). The following applies: unit inferred; read-out: Specificity for PI3KC2β (IC50 determined in vitro); cited from earlier work.
Chain of PI3KC2β (O00750 whole entry, species assumed): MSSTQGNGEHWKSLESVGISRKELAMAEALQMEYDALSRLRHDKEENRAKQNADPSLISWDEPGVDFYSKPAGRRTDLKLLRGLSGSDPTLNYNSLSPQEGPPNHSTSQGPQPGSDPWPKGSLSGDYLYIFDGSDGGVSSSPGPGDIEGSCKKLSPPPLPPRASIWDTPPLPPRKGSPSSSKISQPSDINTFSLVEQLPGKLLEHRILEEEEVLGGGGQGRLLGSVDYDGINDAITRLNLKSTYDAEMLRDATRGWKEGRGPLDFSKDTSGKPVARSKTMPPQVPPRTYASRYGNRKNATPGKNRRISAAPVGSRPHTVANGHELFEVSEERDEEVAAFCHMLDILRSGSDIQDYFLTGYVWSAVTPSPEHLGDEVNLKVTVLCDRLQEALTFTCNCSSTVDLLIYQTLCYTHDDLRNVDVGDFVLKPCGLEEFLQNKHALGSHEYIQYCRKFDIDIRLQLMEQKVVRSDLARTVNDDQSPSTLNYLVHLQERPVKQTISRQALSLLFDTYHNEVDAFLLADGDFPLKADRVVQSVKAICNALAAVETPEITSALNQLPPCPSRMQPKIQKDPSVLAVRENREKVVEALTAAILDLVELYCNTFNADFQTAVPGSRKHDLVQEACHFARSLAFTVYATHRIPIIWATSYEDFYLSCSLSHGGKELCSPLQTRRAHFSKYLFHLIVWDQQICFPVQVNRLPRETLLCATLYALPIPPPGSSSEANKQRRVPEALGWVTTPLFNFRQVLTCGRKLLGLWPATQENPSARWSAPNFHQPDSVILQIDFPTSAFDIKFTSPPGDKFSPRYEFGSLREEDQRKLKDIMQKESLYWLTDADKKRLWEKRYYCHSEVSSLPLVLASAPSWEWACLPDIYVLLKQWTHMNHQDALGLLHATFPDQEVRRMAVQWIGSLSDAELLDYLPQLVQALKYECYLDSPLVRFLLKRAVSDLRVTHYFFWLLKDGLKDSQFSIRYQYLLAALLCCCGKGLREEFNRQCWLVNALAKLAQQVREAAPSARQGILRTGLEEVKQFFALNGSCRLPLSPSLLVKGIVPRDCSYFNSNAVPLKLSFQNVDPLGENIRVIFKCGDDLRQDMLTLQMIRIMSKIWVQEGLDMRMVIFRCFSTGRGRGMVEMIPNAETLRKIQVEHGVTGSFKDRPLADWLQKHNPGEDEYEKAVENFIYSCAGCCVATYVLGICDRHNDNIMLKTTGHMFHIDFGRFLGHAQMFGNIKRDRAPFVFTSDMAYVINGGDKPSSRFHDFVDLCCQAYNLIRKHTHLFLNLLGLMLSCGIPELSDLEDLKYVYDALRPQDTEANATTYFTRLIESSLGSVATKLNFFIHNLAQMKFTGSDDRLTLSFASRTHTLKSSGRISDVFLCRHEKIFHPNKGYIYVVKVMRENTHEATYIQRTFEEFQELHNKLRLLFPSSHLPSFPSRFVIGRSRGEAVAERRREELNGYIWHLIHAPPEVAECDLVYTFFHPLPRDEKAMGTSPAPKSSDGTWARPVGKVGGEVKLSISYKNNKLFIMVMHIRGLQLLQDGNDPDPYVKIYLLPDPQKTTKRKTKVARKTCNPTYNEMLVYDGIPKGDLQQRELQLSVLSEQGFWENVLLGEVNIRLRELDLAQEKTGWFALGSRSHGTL
The target in a further assay is ATR (Homo sapiens, UniProt Q13535). The following applies: unit inferred; read-out: Specificity for ATR (IC50 determined in vitro); cited from earlier work.
The target in the next assay is p110α (Homo sapiens, UniProt P42336). The following applies: unit inferred; read-out: Specificity for p110α (IC50 determined in vitro); cited from earlier work.
Chain of p110α (P42336 whole entry, species assumed): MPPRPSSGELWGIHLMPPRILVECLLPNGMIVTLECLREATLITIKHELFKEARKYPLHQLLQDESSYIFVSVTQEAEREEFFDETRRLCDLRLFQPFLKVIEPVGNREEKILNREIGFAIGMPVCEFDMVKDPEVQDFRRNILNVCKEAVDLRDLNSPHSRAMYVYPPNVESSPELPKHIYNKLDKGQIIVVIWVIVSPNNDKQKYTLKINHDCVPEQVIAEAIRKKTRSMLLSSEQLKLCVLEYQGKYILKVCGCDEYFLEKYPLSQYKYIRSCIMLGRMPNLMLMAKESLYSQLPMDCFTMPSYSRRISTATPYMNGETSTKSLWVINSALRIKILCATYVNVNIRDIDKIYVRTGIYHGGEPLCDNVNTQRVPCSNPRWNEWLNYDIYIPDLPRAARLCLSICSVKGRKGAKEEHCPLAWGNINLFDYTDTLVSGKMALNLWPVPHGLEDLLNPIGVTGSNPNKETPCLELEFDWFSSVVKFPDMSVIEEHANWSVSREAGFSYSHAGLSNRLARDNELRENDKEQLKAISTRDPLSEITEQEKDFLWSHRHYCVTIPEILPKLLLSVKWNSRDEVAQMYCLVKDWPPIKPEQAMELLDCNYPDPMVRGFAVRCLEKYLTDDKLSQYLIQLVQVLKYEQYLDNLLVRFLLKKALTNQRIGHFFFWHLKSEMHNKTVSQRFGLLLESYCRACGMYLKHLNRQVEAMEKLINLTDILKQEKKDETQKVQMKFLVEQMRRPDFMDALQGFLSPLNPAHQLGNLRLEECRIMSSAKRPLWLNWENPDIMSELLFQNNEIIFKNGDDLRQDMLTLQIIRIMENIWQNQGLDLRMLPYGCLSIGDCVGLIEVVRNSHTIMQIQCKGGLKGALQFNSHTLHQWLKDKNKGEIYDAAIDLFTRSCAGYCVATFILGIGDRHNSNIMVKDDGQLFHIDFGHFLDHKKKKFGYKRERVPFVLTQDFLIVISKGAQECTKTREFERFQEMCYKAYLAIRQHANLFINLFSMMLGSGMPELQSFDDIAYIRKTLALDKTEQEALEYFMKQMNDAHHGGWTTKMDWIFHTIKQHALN
Chain of p110α (P27986 whole entry partner, species assumed): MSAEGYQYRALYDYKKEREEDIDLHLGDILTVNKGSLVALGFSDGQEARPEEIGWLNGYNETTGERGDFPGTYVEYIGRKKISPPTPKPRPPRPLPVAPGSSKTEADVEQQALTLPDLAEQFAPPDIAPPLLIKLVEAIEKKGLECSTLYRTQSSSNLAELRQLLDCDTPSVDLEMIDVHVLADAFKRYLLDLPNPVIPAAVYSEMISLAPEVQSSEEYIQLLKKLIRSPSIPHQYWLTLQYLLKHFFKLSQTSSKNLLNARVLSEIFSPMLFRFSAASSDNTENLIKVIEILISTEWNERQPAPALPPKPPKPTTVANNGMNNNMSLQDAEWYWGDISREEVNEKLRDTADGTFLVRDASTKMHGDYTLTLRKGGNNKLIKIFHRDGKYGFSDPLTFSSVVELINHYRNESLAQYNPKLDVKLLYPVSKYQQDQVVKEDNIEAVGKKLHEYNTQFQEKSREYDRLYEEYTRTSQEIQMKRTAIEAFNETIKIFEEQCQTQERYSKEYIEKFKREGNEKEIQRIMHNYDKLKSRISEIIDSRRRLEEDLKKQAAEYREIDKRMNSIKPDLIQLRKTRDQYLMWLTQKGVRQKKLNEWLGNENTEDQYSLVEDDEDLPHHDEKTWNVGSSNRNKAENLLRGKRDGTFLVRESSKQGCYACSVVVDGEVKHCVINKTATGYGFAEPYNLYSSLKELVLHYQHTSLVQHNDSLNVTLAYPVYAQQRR
For a further assay, the target named is PI4KIIα (Homo sapiens, UniProt Q9BTU6). To be noted: unit inferred; read-out: Specificity for PI4KIIα (IC50 determined in vitro); cited from earlier work.
Chain of PI4KIIα (Q9BTU6 whole entry): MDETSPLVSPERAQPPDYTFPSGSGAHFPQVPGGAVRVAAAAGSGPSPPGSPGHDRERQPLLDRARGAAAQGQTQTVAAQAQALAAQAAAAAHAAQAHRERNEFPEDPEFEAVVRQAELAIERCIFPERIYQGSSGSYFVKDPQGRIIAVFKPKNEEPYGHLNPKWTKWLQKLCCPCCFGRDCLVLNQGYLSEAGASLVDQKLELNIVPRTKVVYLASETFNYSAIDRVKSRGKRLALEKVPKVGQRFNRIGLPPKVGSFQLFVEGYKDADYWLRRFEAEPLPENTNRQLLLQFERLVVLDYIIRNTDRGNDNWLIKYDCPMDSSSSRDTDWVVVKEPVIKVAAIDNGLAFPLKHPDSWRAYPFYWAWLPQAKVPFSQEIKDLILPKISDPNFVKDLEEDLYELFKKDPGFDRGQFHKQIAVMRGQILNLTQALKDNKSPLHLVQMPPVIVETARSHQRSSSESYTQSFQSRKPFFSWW
The target of another assay is p110γ (Homo sapiens, UniProt P48736). The following applies: unit inferred; read-out: Specificity for p110γ (IC50 determined in vitro); cited from earlier work.
A further assay has as its target hsVPS34 (Homo sapiens, UniProt Q8NEB9). The following applies: unit inferred; read-out: Specificity for hsVPS34 (IC50 determined in vitro); cited from earlier work.
The target in the next assay is T1, PI5P4KIIβ (Homo sapiens, UniProt P78356).
T1 sequence (P78356 1-416): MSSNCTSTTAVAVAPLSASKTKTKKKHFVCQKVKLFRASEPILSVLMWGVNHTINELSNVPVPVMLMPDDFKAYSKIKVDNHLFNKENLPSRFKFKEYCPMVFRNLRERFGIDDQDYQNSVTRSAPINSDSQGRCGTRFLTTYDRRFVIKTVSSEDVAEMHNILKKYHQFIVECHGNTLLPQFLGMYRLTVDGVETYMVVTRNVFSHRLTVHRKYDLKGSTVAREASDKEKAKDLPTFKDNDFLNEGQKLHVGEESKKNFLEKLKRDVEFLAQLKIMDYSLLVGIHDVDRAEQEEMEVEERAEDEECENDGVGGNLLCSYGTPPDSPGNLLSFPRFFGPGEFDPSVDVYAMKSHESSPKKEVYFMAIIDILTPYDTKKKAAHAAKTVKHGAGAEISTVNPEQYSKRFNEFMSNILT
The following applies: unit inferred; read-out: Specificity for PI5P4KIIβ (IC50 determined in vitro); cited from earlier work.

For assay [2], the target named is PI4P5KIα (Homo sapiens, UniProt Q99755). The following applies: first PI4P5KIα line; unit inferred; read-out: Specificity for PI4P5KIα (IC50 determined in vitro); cited from earlier work.
Another assay addresses PI3KC2γ (Homo sapiens, UniProt O75747). The following applies: unit inferred; read-out: Specificity for PI3KC2γ (IC50 determined in vitro); cited from earlier work.
Another assay deals with p110β (Homo sapiens, UniProt P42338). The following applies: unit inferred; read-out: Specificity for p110β (IC50 determined in vitro); cited from earlier work.
A further assay addresses ATM (Homo sapiens, UniProt Q13315). The following applies: unit inferred; read-out: Specificity for ATM (IC50 determined in vitro); cited from earlier work.
In a further assay the target is mTORC2 (Homo sapiens, UniProt P42345). To be noted: unit inferred; read-out: Specificity for mTORC2 (IC50 determined in vitro); cited from earlier work.
Assay [3] relates to naive CD62LhiCD4+CD25− LN T cells. The assay can be described thus: Foxp3 induction in newly activated naive CD4 T cells (intracellular staining). Format: cell-based, mouse. As for the experimental part: Mouse strains, cell sorting and culture Animal work was carried out according the Animals (Scientific Procedures) Act, UK. Lymph node (LN) cells were stained, analysed and sorted by flow cytometry as described (Cobb et al 2005 J. Exp. Med. 201: 1367-1373). Intracellular staining for Foxp3 protein was done as advised by the manufacturers (eBiosciences.com). The phosphorylation syatus of S6 ribosomal protein was determined using anti pS6 Ser235/236 (Cellsignaling cat.no. 2211, http://www.cellsignal.com) using the eBioscience Foxp3 staining kit and anti rabbit IgG-FITC or IgG-Cy5 (Jackson Immunoresearch). For induction of Foxp3 expression, sorted LN CD4+ CD25− CD62Lhi T cells were cultured at 1-3×10^6/ml with plate bound anti-TCRβ. […] After 18 hours the cells were either left in place for continued TCR stimulation or moved to uncoated wells with the indicated additives. To assess regulatory function, CD4 T cells cultured as indicated were titrated into round bottom wells containing either 1×10^5 CFSE labeled total LN cells or 5×10^4 CFSE labeled CD4^+ CD25^− T cells and 1×10^5 mitomycin-C treated (25 μg/ml, 20 min, 37° C.) T cell depleted splenocytes with the indicated concentrations of anti CD3 (2C11, Pharmingen). CD4 T cell CFSE profiles were recorded between 48 and 72 hours later.
Mice, Cell Sorting and Culture. Animal work was carried out according to the Animals (Scientific Procedures) Act, UK. Lymph node (LN) cells or thymocytes from wild type were stained, analysed and sorted by flow cytometry as described (Thompson et al., 2007 Immunity VoI 26 pp 335-344) from wild type (C57BL/6, BALB/c or C57BL/6×129) mice or from Rag1 deficient H2^b AND TCR transgenic mice. Antigen presenting cells were derived from bone marrow in the presence of GM-CSF and incubated with antigenic peptide. Intracellular staining for Foxp3 protein was done as advised by the manufacturers (eBiosciences.com). The phosphorylation status of S6 ribosomal protein was determined using anti pS6 Ser235/236 (Cell Signaling cat.no. 2211, http://www.cellsignal.com) using the eBioscience Foxp3 staining kit and anti rabbit IgG-FITC or IgG-Cy5 (Jackson ImmunoResearch). […] After 18 hours the cells were either left in place for continued TCR stimulation or moved to uncoated wells with the indicated additives. To assess regulatory function, CD4 T cells cultured as indicated were titrated into round bottom wells containing either 1×10^5 CFSE labeled total LN cells or 5×10^4 CFSE labeled CD4^+CD25^− T cells and 1×10^5 mitomycin-C treated (25 μg/ml, 20 min, 37° C.) T cell depleted splenocytes with the indicated concentrations of anti CD3 (2C11, Pharmingen). CD4 T cell CFSE profiles were recorded between 48 and 72 hours later.

In a further assay the target is DNA-PK (Homo sapiens, UniProt P78527). The following applies: unit inferred; read-out: Specificity for DNA-PK (IC50 determined in vitro); cited from earlier work.
Another assay addresses PI3KC2α (Homo sapiens, UniProt O00443). To be noted: unit inferred; read-out: Specificity for PI3KC2α (IC50 determined in vitro); cited from earlier work.
For another assay, the target named is mTORC1 (Homo sapiens, UniProt P42345). To be noted: unit inferred; read-out: Specificity for mTORC1 (IC50 determined in vitro); cited from earlier work.

Chain of p110δ (O00329 whole entry, species assumed): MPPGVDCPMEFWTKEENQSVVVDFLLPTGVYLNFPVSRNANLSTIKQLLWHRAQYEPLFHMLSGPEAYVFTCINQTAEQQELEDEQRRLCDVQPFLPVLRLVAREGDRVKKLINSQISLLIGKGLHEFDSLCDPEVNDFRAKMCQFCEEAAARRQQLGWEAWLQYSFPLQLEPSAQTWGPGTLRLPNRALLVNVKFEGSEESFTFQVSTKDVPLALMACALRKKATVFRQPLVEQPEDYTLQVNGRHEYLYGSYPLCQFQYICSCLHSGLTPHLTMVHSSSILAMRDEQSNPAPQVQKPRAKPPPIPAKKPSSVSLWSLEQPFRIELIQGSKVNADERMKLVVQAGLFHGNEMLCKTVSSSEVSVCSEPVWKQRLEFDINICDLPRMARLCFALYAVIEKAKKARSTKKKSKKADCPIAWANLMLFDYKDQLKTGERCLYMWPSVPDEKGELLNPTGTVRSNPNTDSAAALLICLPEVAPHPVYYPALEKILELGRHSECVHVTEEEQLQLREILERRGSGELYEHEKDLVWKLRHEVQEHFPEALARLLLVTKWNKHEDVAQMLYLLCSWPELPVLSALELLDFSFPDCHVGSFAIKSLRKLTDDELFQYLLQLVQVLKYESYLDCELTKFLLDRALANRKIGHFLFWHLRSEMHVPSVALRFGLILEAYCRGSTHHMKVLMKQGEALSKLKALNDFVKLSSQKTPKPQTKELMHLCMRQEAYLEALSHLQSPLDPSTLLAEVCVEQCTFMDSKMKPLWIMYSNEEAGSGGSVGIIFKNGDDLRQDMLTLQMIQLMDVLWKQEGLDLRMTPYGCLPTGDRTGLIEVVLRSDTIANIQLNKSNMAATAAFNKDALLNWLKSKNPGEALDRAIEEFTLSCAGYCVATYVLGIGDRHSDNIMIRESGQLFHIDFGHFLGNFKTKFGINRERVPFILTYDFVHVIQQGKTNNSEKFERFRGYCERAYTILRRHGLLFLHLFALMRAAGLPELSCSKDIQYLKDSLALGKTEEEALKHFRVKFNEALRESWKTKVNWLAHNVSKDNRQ

As for `Cc1ccccc1Oc1cccc2c(=O)cc(N3CCOCC3)[nH]c12` [TGX115], the 50% inhibitory concentration (IC50) is > 100 µM at PI4KIIIβ; 0.63 µM at p110δ; > 100 µM on PI4KIIIα; > 100 µM in the assay on PI4P5KIα [1]; 50 µM on PI3KC2β; > 100 µM at ATR. In addition, the IC50 was 61 µM at p110α; > 100 µM at PI4KIIα; 100 µM at p110γ; 5.2 µM on hsVPS34; > 100 µM at PI5P4KIIβ; > 100 µM at PI4P5KIα [2]. Moreover, the half-maximal inhibitory concentration (IC50) at PI3KC2γ was 100 µM; on p110β, 0.13 µM; at ATM, 20 µM; at mTORC2 it was > 100 µM; on DNA-PK, 1.2 µM; on PI3KC2α it was > 100 µM. Besides, at mTORC1, the IC50 was > 100 µM. The “effect on Foxp3 expression at 0.1 μM” value in assay [3] (0.1 μM) was “did not affect Foxp3 expression”. The “effect on Foxp3 expression at 10 μM” value in assay [3] was “slight impact on Foxp3 expression”; in assay [3] (listed as TGX-115), “very little effect”.
